Here are results for 5 compounds from ChEMBL document CHEMBL1201862, “PubChem BioAssay data set” (2004).

Activity calls are given as the source filed them.

The target in test [1] is T1, Luciferin 4-monooxygenase (Photinus pyralis, UniProt P08659). In words: Counter Screen for Luciferase-based Assay Positives. [Related pubchem assays: 620, 618, 411 ]. (A counterscreen serves to expose hits that act by an unwanted route or on another target.)
Test [2] in a line: off-target signal loss in HeLa-CEM21 co-culture – HeLa F-luc CTL cells, cherry-picked, counter-screen for HIV-1 Env fusion inhibitor project, dose response (AID 652040).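 Also: potency for signal decrease marking cytotoxic or nonspecific inhibition.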 Format: functional, cell-based.
For test [3], the target named is Glyceraldehyde-3-phosphate dehydrogenase (Homo sapiens, UniProt P04406).
For test [4], the target named is T1, Luciferin 4-monooxygenase. In words: In vitro luciferase assay using purified luciferase. [Related pubchem assays: 1299, 1270, 1295, 1375, 1287, 1281, 1293, 1291, 1289, 1280, 465, 1364, 1282, 1372, 1365, 1370, 1367, 1366, 1266, 1373, 1292, 1290, 1302, 1371, 1283, 1271, 1294, 1374, 1368, 1369 ].
Test [5] can be described thus: HIV-1 AD8 envelope cell-cell fusion blockers – cherry-pick, dose response (AID 652062).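 Also: luciferase signal from cell-cell fusion driven by HIV-1 clade B AD8 Env; potency is for inhibitors of fusion seen as a drop in luminescence.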 Format: functional, cell-based.
A further test concerns HT-1080. Put plainly: HT1080 cell viability loss – fluorescence readout (AID 620). It counts as functional, cell-based. The conditions noted are these: Homo sapiens.
The subject of test [6] is HEK293. In words: Cytotoxicity assay in HEK293 cells. [Related pubchem assays (depositor defined):AID1266, AID1269, AID1270, AID1271, AID1280, AID1281, AID1282, AID1283, AID1287, AID1289, AID1290, AID1291, AID1292, AID1293, AID1294, AID1295, AID1299, AID1302, AID1364, AID1365, AID1366, AID1367, AID1369, AID1370, AID1371, AID1372, AID1373, AID1374, AID1375, AID1384 …. Format: functional, cell-based. Particulars: Homo sapiens.

Test [7] concerns HEK293. Put plainly: PMA/Ionomycin induced NF-kB luciferase assay in 293- NF-kB-Luc stable cells. [Related pubchem assays: 1299, 1270, 1295, 1375, 1287, 1281, 1293, 1291, 1289, 1280, 465, 1364, 1282, 1372, 1365, 1370, 1367, 1366, 1269, 1373, 1292, 1290, 1302, 1371, 1283, 1271, 1294, 1374, 1368, 1369 ]. It counts as functional, cell-based. The conditions noted are these: Homo sapiens.

Test [8] can be described thus: blockers of HIV-1 envelope-mediated cell-cell fusion – cherry-pick, dose response (AID 652057). Format: functional, cell-based.
The target in test [9] is FAD-linked sulfhydryl oxidase ALR (Homo sapiens, UniProt P55789). Put plainly: ALR-catalysed DTT oxidation blockers – biochemical, H2O2 detection, luminescence, cherry-pick, dose response (AID 493248).
For test [10], the target named is Induced myeloid leukemia cell differentiation protein Mcl-1 (Homo sapiens, UniProt Q07820). Format: functional.
The next test concerns Vero. In words: viability of Vero cells under compound – cytotoxicity control for flavivirus capping enzyme inhibitors (AID 588742). It counts as functional. The conditions noted are these: Chlorocebus sabaeus.
Test [11] in a line: CCR5-tropic HIV-1 fusion blockers – cell-based, CCR5-tropic Env, dose response (AID 2279). Format: functional.
Another test concerns the target Genome polyprotein (dengue virus type 2, UniProt P29990). In words: flavivirus cap methylation enzyme inhibition – biochemical, confirmation dose response, primary screen (AID 588689). It counts as functional.
In test [12] the target is Neuropeptides B/W receptor type 1 (Homo sapiens, UniProt P48145). In words: Fluorescence-based dose response cell-based high throughput screening assay to identify antagonists of the G-protein coupled receptor 7 (GPR7). [Related pubchem assays: 1952 (Screening assay (GPR7 antagonists).), 1880 (Summary AID.)]. It counts as functional.
For test [13], the target named is Melanin-concentrating hormone receptor 1 (Homo sapiens, UniProt Q99705). In words: Fluorescence-based counterscreen for antagonists of the G-protein coupled receptor 7 (GPR7): cell-based high throughput dose response assay to identify antagonists of the melanin-concentrating hormone receptor 1 (MCHR1). It counts as functional.
In test [14] the target is T2, Heat shock factor protein 1 (Mus musculus, UniProt P38532).
T2 sequence (P38532 whole entry): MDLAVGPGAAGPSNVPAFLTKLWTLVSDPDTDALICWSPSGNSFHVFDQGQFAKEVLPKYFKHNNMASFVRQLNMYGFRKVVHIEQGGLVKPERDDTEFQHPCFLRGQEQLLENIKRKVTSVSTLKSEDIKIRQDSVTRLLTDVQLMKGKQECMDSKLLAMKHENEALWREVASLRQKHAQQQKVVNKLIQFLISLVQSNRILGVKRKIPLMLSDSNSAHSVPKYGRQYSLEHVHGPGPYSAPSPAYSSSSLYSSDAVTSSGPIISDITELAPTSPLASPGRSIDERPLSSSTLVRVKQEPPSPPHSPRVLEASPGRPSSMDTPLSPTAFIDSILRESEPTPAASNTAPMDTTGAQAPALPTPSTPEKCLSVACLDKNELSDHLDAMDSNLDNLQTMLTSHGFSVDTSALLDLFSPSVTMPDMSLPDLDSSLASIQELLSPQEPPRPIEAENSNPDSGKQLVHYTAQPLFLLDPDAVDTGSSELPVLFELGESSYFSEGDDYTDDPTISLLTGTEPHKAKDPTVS
Put plainly: decrease of HSF1-responsive luciferase luminescence – cell-based, NIH3T3, dose retest, confirmation (AID 2382).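 Also: NIH3T3 fibroblasts with HSF1-driven luciferase reporter stressed by proteasome inhibitor MG132; luminescence from HSF1-driven luciferase expression after 8 hours of MG132 stress.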 It counts as functional.

Test [15] in a line: HEK-293T viability loss after treatment – luminescence, T-cell screen hits, cytotoxicity control for TCR NF-kB inhibitor project, dose response (AID 489026).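 Also: cells exposed to compound about 14 hours before the viability readout.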 Format: functional, cell-based.
The target of test [16] is Scavenger receptor class B member 1 (Mus musculus, UniProt Q61009). Put plainly: mouse SR-BI DiI-HDL uptake blockers – ldlA[mSR-BI] cells, fluorescence, cherry pick, dose response (AID 493194).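 Also: cellular uptake of fluorescent DiI-labeled HDL measured as cell fluorescence.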 Format: functional, cell-based.
In test [17] the target is T3, Fatty acid synthase (Homo sapiens, UniProt P49327). In words: inhibition of human FAS-TE enzyme activity – biochemical, endpoint fluorescence intensity, uHTS hits, dose response (AID 624327).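 Also: fluorescence from hydrolysis of an O-methyl fluorescein acyl ester substrate by the enzyme.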 It counts as functional.
Test [18] has as its target Neurotensin receptor type 1 (Homo sapiens, UniProt P30989). It counts as functional.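 Also: Image-based confirmatory dose-response assay measuring agonist activity at NTR1; NTR1-expressing U2OS osteosarcoma cells imaged for beta-arrestin GFP spot formation; agonist potency where compounds increase beta-arrestin recruitment.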
For test [19], the target named is T3, Fatty acid synthase. Put plainly: inhibition of human FAS-TE enzyme activity – biochemical, kinetic fluorescence intensity, dose response (AID 624326).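 Also: rate of fluorescence rise from hydrolysis of a fluorogenic O-methyl fluorescein ester substrate.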 Format: functional.

T1 sequence (P08659 whole entry, the tested form may be a part): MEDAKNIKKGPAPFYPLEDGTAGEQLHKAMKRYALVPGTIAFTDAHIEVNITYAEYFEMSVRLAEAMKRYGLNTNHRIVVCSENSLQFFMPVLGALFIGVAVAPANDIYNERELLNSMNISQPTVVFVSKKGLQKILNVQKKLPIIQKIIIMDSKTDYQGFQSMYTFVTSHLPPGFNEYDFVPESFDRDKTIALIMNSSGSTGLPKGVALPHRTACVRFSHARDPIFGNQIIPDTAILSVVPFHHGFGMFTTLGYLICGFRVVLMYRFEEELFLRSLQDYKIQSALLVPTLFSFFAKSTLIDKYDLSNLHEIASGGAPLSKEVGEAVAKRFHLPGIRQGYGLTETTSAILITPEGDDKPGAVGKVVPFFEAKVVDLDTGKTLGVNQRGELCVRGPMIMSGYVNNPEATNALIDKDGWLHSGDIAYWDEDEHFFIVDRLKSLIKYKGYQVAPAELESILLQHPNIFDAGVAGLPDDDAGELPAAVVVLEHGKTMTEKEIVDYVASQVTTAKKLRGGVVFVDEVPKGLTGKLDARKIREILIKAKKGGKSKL
T3 sequence (P49327 whole entry): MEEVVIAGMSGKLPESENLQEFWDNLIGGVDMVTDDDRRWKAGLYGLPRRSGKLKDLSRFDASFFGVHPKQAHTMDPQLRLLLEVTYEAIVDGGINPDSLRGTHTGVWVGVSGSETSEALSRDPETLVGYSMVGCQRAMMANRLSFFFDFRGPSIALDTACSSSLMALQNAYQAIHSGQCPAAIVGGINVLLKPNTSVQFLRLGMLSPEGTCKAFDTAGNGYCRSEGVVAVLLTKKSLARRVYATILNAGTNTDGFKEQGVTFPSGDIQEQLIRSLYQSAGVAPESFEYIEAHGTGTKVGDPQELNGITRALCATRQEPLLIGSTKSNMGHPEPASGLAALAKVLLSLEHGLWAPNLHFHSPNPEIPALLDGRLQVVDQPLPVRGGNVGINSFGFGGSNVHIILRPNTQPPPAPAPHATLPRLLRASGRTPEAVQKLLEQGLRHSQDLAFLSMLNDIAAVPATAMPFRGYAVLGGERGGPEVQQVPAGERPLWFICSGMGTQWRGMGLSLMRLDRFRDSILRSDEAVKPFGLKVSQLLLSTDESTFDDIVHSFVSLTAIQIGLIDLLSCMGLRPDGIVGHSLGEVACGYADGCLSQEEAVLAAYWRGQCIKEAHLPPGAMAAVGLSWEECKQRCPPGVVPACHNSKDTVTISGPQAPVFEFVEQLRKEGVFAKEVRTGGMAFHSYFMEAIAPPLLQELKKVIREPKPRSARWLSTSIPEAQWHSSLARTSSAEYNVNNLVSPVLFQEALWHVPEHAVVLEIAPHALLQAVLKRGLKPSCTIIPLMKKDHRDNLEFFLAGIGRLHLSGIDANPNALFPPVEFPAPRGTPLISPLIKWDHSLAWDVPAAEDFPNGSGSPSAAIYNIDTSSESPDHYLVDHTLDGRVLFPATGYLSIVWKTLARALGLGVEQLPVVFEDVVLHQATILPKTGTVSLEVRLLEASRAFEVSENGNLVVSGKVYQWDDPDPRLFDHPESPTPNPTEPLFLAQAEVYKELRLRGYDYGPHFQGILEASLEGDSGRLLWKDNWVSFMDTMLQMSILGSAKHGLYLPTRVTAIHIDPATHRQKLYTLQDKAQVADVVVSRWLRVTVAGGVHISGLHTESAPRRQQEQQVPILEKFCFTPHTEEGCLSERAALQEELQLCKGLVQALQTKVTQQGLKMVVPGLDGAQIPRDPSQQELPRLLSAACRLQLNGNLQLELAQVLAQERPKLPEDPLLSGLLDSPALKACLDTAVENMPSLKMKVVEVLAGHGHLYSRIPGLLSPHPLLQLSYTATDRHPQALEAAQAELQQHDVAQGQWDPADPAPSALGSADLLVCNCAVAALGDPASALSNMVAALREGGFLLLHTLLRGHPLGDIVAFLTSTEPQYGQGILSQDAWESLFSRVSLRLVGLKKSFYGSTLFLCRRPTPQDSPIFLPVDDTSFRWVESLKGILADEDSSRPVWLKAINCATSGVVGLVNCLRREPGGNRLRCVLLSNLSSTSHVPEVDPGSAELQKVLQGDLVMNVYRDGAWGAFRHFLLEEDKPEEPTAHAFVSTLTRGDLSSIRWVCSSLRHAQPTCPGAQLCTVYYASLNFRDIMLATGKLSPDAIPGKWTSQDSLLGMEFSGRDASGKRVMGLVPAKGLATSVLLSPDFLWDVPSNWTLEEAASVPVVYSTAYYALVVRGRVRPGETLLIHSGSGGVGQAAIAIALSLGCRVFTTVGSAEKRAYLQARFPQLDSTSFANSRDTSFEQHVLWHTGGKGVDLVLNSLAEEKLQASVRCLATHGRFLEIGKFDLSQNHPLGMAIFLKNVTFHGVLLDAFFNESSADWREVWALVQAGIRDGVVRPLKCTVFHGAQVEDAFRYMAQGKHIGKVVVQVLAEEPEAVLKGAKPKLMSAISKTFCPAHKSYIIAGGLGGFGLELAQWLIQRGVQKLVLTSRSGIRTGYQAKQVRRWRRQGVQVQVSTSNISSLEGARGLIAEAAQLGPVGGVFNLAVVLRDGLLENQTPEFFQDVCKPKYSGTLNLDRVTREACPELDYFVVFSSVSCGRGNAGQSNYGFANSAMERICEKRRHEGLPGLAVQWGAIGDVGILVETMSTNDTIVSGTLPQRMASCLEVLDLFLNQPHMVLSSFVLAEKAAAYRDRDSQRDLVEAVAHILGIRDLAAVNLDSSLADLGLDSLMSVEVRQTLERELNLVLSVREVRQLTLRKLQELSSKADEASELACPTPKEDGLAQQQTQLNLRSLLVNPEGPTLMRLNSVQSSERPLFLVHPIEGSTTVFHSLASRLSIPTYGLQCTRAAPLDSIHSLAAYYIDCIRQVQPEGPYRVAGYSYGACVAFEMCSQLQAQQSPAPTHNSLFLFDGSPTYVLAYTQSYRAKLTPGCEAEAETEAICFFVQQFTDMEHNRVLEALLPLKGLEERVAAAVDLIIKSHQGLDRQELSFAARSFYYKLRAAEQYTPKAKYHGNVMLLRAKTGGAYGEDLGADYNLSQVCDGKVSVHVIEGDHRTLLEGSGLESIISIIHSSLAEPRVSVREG
Chain of Genome polyprotein (P29990 2492-3391 limits assumed): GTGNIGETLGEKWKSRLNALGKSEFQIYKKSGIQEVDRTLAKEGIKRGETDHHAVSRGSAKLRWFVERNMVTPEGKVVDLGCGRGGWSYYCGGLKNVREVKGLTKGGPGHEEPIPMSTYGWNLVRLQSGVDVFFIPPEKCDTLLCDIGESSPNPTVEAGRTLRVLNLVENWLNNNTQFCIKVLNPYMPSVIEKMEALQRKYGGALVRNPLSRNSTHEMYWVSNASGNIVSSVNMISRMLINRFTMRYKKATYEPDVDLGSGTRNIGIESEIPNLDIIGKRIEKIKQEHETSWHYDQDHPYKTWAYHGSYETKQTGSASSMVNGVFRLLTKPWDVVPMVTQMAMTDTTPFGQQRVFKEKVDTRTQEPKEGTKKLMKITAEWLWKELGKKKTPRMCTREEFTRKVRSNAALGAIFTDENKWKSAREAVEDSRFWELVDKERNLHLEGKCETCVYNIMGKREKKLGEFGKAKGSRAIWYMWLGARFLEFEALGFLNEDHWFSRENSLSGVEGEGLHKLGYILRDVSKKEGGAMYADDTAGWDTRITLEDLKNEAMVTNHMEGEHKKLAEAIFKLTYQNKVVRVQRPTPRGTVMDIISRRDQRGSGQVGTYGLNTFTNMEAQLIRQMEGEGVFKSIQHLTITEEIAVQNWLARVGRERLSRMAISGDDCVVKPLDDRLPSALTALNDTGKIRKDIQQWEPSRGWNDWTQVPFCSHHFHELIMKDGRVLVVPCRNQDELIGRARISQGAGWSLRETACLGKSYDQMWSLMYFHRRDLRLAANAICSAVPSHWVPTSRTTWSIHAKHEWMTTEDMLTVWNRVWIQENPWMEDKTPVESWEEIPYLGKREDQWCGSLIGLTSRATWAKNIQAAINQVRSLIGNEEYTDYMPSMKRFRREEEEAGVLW
Chain of Glyceraldehyde-3-phosphate dehydrogenase (P04406 whole entry): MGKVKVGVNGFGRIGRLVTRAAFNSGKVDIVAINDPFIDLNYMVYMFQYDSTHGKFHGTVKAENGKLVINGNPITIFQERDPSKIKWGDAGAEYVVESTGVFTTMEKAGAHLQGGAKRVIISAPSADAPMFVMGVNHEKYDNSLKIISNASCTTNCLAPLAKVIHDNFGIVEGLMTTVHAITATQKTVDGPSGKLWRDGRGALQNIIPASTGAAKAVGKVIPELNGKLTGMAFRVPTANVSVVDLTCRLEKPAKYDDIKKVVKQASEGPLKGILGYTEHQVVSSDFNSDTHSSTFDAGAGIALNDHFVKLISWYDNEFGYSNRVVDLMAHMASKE
Chain of Scavenger receptor class B member 1 (Q61009 whole entry): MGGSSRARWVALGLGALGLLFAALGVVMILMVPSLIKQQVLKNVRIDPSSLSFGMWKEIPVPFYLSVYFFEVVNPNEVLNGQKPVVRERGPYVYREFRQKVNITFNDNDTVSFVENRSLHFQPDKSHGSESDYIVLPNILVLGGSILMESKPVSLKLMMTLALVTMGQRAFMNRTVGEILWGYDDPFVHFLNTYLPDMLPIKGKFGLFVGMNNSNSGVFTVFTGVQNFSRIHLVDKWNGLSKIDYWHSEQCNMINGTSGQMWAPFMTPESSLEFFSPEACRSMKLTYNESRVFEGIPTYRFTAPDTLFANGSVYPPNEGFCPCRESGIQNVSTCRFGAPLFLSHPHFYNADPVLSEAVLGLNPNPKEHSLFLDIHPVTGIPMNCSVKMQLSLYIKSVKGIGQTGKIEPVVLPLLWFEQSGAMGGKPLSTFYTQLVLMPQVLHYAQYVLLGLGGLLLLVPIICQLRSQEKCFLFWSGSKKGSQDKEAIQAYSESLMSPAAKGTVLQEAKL
Chain of FAD-linked sulfhydryl oxidase ALR (P55789 whole entry): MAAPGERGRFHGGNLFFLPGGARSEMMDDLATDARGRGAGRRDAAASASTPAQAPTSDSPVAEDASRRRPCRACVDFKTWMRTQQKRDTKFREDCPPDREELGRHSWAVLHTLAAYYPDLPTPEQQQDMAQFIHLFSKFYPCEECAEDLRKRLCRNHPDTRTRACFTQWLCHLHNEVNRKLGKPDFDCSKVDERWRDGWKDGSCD

As to `O=C(c1ccc(Cl)cc1)N1CCCCC(Sc2nnc(-c3ccc4c(c3)OCO4)o2)C1=O` (configuration not stated), the concentration for a half-maximal effect (EC50) is 4.07 µM (active) in test [1]; > 8 µM (not active) in [4]; > 50 µM (not active) in the test with HT-1080; 2.19 µM (active) in the test with HEK293 [6]; 4.25 µM (not active) in the test on HEK293 [7]. The results for the AC50 in test [2], in test [5] and in test [8] were 13.5 µM (active), 5.75 µM (active) and 2.78 µM (active), respectively. Also, in test [3], the 50% inhibitory concentration (IC50) is > 100 µM (not active).
Take `CN(C)S(=O)(=O)c1cccc(-c2nn(-c3ccccc3)cc2/C=C2\SC(=S)N(CC(=O)O)C2=O)c1`: the AC50 in [9] was 15.5 µM (active). Also, the IC50 in [10] is 4.8 µM (active); in [11], 48.8 µM (active); on Genome polyprotein, 79.5 µM (active). Besides, the cytotoxic concentration (CC50) with Vero is > 40 µM (active).
As to `COc1ccccc1C(=O)N(CCC1CCCN1C)c1nc2ccccc2s1` (configuration not stated), the IC50 in test [12] is 21.4 µM (not active); in [13], 29.7 µM (not active); in [15], > 80 µM (inactive). In [14], the EC50 was < 0.16 µM (active).
On to `Cc1cc(C)n(CC(=O)NC2CCCc3c2cnn3-c2ccc(C)c(C)c2)n1` (configuration not stated), for which the half-maximal activity concentration (AC50) in test [16] is 0.819 µM (active).
Regarding `C[C@@H](NC(=O)c1[nH]cnc1C(=O)Nc1ccc(Cl)cc1)c1ccccc1`, the IC50 on Fatty acid synthase [17] is 8.13 µM (active); at Fatty acid synthase [19] it was 7.01 µM (active). The EC50 in [18] was 19.9 µM (active).

By EC50 is commonly meant the concentration that produces a half-maximal response. Usually AC50 stands for the concentration at which the activity in the assay is half-maximal. The IC50 is the midpoint of a concentration-inhibition curve. One may read the CC50 as the concentration giving 50% cytotoxicity.
